We go through 13 compounds from patent US20260146035A1, “FUSED BICYCLIC COMPOUNDS AND THEIR USE AS MER AND AXL INHIBITORS” (DONG-A ST CO., LTD., priority 2022, published 2026).

The structures appear in SMILES notation. Read-outs that look alike come from different tables or passages of the source.

One experiment addresses T1, human MER (528-end) (Homo sapiens, UniProt Q12866).
T1 construct: human MER (528-end); purchased Camnabio, Japan
T1 sequence (Q12866 528-999 limits assumed): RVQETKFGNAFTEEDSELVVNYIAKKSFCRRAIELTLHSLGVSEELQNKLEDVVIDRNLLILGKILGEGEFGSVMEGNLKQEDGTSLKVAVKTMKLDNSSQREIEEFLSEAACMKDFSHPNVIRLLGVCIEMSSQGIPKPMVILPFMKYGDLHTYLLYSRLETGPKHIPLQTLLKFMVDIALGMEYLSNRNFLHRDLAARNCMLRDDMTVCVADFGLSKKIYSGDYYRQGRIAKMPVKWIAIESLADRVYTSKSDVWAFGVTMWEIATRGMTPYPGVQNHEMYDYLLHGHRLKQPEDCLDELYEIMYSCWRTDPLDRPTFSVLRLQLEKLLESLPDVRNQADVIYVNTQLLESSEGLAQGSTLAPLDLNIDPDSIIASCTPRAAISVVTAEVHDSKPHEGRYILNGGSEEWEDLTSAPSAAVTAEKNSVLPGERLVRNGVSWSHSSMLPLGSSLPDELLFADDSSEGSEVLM
The experiment is described as follows: HTRF kinase activity biochemical assay, MER. Background: In TR-FRET formats the signal depends on donor and acceptor labels being close together.

Experiment [1] concerns phospho-MerTK in BaF3.MerTK tumors. The experiment is described as follows: In vivo Ba/F3 pMER ALISA assay. The conditions noted are these: orally; for % inhibition: 50 milligrams per kilogram, single dose, tumors harvested 4 hours after, phospho-MerTK normalized to total MerTK.
Description: BaF3.MerTK tumor cells were mixed with 50% Matrigel (BD, Franklin Lakes, NJ). […] Tumors were allocated into dose groups at 10 to 11 days post tumor cell inoculation, when they were roughly 250-400 mm^3 in size. Test compounds were formulated in 10% ethanol, 30% PEG-400, and 60% Phosal-50PG, for oral dosing at 0.2 mL per dose per mouse. Plasma and tumors were harvested 4 hours after a single dose. Ba/F3 tumors were harvested into 2 mL Precellys CKmix tubes, snap frozen in liquid nitrogen, and stored at −80° C. overnight. […] Precellys tubes were then centrifuged at >18,000 g for 20 minutes at 4° C. and the supernatant was collected on ice. The lysate was then centrifuged again at >18,000 g for 10 minutes at 4° C. to remove any residual debris. […] Plates were then frozen at −80° C. overnight.
In the next experiment the target is T2, human AXL (473-end) (Homo sapiens, UniProt P30530).
T2 construct: human AXL (473-end); purchased SignalChem, Canada
T2 sequence (P30530 473-894 limits assumed): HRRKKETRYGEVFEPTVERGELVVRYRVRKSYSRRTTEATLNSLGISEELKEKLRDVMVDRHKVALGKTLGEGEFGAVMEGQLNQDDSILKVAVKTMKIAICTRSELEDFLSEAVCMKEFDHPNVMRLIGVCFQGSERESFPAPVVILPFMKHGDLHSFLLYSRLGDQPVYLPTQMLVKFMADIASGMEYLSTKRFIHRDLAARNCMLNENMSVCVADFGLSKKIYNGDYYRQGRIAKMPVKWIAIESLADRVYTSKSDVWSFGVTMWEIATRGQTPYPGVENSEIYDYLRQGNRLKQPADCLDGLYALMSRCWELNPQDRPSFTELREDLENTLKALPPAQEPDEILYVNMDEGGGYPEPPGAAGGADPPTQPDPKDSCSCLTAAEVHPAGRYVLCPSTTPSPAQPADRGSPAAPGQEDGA
The experiment is described as follows: HTRF kinase activity biochemical assay, AXL.

Another experiment concerns the target T3, human TYRO3 (455-end) (Homo sapiens, UniProt Q06418).
T3 construct: TYRO3 (455-end); purchased SignalChem, Canada
T3 sequence (Q06418 455-890 limits assumed): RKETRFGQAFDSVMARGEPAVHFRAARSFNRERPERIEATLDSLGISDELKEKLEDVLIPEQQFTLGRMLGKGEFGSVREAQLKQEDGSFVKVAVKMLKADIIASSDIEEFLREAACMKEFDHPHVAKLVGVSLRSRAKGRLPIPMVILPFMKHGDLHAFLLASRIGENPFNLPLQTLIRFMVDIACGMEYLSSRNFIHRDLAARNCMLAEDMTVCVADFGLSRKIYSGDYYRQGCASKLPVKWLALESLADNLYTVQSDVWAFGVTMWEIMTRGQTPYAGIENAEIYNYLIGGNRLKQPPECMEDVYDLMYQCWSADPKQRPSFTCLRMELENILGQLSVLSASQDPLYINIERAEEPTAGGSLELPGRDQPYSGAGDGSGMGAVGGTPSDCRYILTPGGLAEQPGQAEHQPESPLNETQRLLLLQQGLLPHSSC
The experiment is described as follows: HTRF kinase activity biochemical assay, TYRO3. The conditions noted are these: 10 μM ATP, 30 minutes pre-incubation; read-out: HTRF TYRO IC50.

The mark [2] stands for this setting: 10 μM ATP, 30 minutes pre-incubation, read-out: HTRF MERTK IC50.
The mark [3] stands for this setting: 10 μM ATP, 30 minutes pre-incubation.

Take `Nc1ncc(-c2ccc(F)nc2)cc1C(=O)N[C@H]1CCC[C@@H]1OCc1ccc(-c2ccc3c(c2)CC[C@@H]3N2CCN(CCO)CC2)cc1` [Example 46, 6-amino-6′-fluoro-N-{(1S,2S)-2-[(4-{(1S)-1-[4-(2-hydroxyethyl)piperazin-1-yl]-2,3-dihydro-1H-inden-5-yl}phenyl)methoxy]cyclopentyl}[3,3′-bipyridine]-5-carboxamide]: the figures for the IC50 at human MER (528-end) (setting [2]), against human AXL (473-end) (setting [3]) and on human TYRO3 (455-end) were less than 10 nM, less than 10 nM and 10 to 100 nM, respectively. Further, the % inhibition (usually the change of the read-out against control, counted positive when it falls) in experiment [1] is 37%.

With `Cn1cc(-c2cnc(N)c(C(=O)N[C@H]3CCC[C@@H]3OCc3ccc(-c4ccc5c(c4)C(C)(C)CC5N4CCN(CCO)CC4)cc3)c2)cn1` (stereo partly drawn) [Example 83, 2-amino-N-{(1S,2S)-2-[(4-{1-[4-(2-hydroxyethyl)piperazin-1-yl]-3,3-dimethyl-2,3-dihydro-1H-inden-5-yl}phenyl)methoxy]cyclopentyl}-5-(1-methyl-1H-pyrazol-4-yl)pyridine-3-carboxamide], the IC50 – broadly, the midpoint of a concentration-inhibition curve – on human MER (528-end) (setting [2]) is less than 10 nM; on human MER (528-end) (in vitro, read-out: HTRF MerTK IC50), less than 10 nM; against human AXL (473-end) (setting [3]), less than 10 nM; at human AXL (473-end) (in vitro), less than 10 nM; on human TYRO3 (455-end), less than 10 nM. Moreover, the “% inhibition” value in experiment [1] worked out at 58%. The “% inhibition in the in vivo Ba/F3 pMer ALISA Assay” value in experiment [1] (as shown in Tables 3 and 4: 50 milligrams per kilogram) amounted to 58%.

With `CN1CCN([C@H]2CCCc3cc(-c4ccc(CO[C@H]5CCC[C@@H]5NC(=O)c5cc(-c6cccnc6F)cnc5N)cc4)ccc32)CC1` [Example 163, 6-amino-2′-fluoro-N-[(1S,2S)-2-({4-[(5S)-5-(4-methylpiperazin-1-yl)-5,6,7,8-tetrahydronaphthalen-2-yl]phenyl}methoxy)cyclopentyl][3,3′-bipyridine]-5-carboxamide], the IC50 is less than 10 nM on human MER (528-end) (setting [2]), less than 10 nM against human AXL (473-end) (setting [3]) and 10 to 100 nM at human TYRO3 (455-end).

Regarding `Cn1cc(-c2cnc(N)c(C(=O)N[C@H]3CCC[C@@H]3OCc3ccc(-c4ccc5c(c4)CCC[C@H]5N4CCN(C[C@H](O)CO)CC4)cc3)c2)cn1` [Example 170, 2-amino-N-[(1S,2S)-2-({4-[(5R)-5-{4-[(2S)-2,3-dihydroxypropyl]piperazin-1-yl}-5,6,7,8-tetrahydronaphthalen-2-yl]phenyl}methoxy)cyclopentyl]-5-(1-methyl-1H-pyrazol-4-yl)pyridine-3-carboxamide], the IC50 at human MER (528-end) (setting [2]) was 10 to 100 nM; on human AXL (473-end) (setting [3]) it was 10 to 100 nM; on human TYRO3 (455-end) it was greater than 1000 nM.

As to `Cc1ncc(-c2cnc(N)c(C(=O)N[C@H]3CCC[C@@H]3OCc3ccc(-c4ccc5c(c4)CC[C@@H]5N4CCN(CCO)CC4)cc3)c2)s1` [Example 172, 2-amino-N-{(1S,2S)-2-[(4-{(1S)-1-[4-(2-hydroxyethyl)piperazin-1-yl]-2,3-dihydro-1H-inden-5-yl}phenyl)methoxy]cyclopentyl}-5-(2-methyl-1,3-thiazol-5-yl)pyridine-3-carboxamide], the results for the IC50 on human MER (528-end) (setting [2]), against human AXL (473-end) (setting [3]) and at human TYRO3 (455-end) were less than 10 nM, less than 10 nM and 10 to 100 nM, respectively.

As for `Nc1ncc(-c2ccns2)cc1C(=O)N[C@H]1CCC[C@@H]1OCc1ccc(-c2ccc3c(c2)CC[C@@H]3N2CCN(CCO)CC2)cc1` [Example 174, 2-amino-N-{(1S,2S)-2-[(4-{(1S)-1-[4-(2-hydroxyethyl)piperazin-1-yl]-2,3-dihydro-1H-inden-5-yl}phenyl)methoxy]cyclopentyl}-5-(1,2-thiazol-5-yl)pyridine-3-carboxamide], the IC50 on human MER (528-end) (setting [2]) was less than 10 nM; at human AXL (473-end) (setting [3]) it was less than 10 nM; at human TYRO3 (455-end) it was 10 to 100 nM.

As to `Cc1cc(-c2cnc(N)c(C(=O)N[C@H]3CCC[C@@H]3OCc3ccc(-c4ccc5c(c4)CC[C@@H]5N4CCN(CCO)CC4)cc3)c2)sn1` [Example 175, 2-amino-N-{(1S,2S)-2-[(4-{(1S)-1-[4-(2-hydroxyethyl)piperazin-1-yl]-2,3-dihydro-1H-inden-5-yl}phenyl)methoxy]cyclopentyl}-5-(3-methyl-1,2-thiazol-5-yl)pyridine-3-carboxamide], the IC50 on human MER (528-end) (setting [2]) was less than 10 nM; against human AXL (473-end) (setting [3]) it was less than 10 nM; on human TYRO3 (455-end), 10 to 100 nM.

`Nc1ncc(-c2cncs2)cc1C(=O)N[C@H]1CCC[C@@H]1OCc1ccc(-c2ccc3c(c2)CC[C@@H]3N2CCN(CCO)CC2)cc1` [Example 176, 2-amino-N-{(1S,2S)-2-[(4-{(1S)-1-[4-(2-hydroxyethyl)piperazin-1-yl]-2,3-dihydro-1H-inden-5-yl}phenyl)methoxy]cyclopentyl}-5-(1,3-thiazol-5-yl)pyridine-3-carboxamide]: the IC50 on human MER (528-end) (setting [2]) was less than 10 nM; against human AXL (473-end) (setting [3]) it was less than 10 nM; at human TYRO3 (455-end) it was 10 to 100 nM.

Turning to `Nc1ncc(-c2ccccn2)cc1C(=O)N[C@H]1CCC[C@@H]1OCc1ccc(-c2ccc3c(c2)CC[C@@H]3N2CCN(CCO)CC2)cc1` [Example 177, 6′-amino-N-{(1S,2S)-2-[(4-{(1S)-1-[4-(2-hydroxyethyl)piperazin-1-yl]-2,3-dihydro-1H-inden-5-yl}phenyl)methoxy]cyclopentyl}[2,3′-bipyridine]-5′-carboxamide], the figures for the IC50 at human MER (528-end) (setting [2]), against human AXL (473-end) (setting [3]) and on human TYRO3 (455-end) were less than 10 nM, less than 10 nM and 10 to 100 nM, respectively.

Regarding `COc1cccc(-c2cnc(N)c(C(=O)N[C@H]3CCC[C@@H]3OCc3ccc(-c4ccc5c(c4)CC[C@@H]5N4CCN(CCO)CC4)cc3)c2)n1` [Example 178, 6′-amino-N-{(1S,2S)-2-[(4-{(1S)-1-[4-(2-hydroxyethyl)piperazin-1-yl]-2,3-dihydro-1H-inden-5-yl}phenyl)methoxy]cyclopentyl}-6-methoxy[2,3′-bipyridine]-5′-carboxamide], the IC50 at human MER (528-end) (setting [2]) was less than 10 nM; against human AXL (473-end) (setting [3]), less than 10 nM; at human TYRO3 (455-end) it was 10 to 100 nM.

On to `COc1nc(-c2cnc(N)c(C(=O)N[C@H]3CCC[C@@H]3OCc3ccc(-c4ccc5c(c4)CC[C@@H]5N4CCN(CCO)CC4)cc3)c2)cs1` [Example 179, 2-amino-N-{(1S,2S)-2-[(4-{(1S)-1-[4-(2-hydroxyethyl)piperazin-1-yl]-2,3-dihydro-1H-inden-5-yl}phenyl)methoxy]cyclopentyl}-5-(2-methoxy-1,3-thiazol-4-yl)pyridine-3-carboxamide], for which the results for the IC50 on human MER (528-end) (setting [2]), against human AXL (473-end) (setting [3]) and at human TYRO3 (455-end) were less than 10 nM, less than 10 nM and 10 to 100 nM, respectively.

Regarding `Cc1nc(-c2cnc(N)c(C(=O)N[C@H]3CCC[C@@H]3OCc3ccc(-c4ccc5c(c4)CC[C@@H]5N4CCN(CCO)CC4)cc3)c2)cs1` [Example 180, 2-amino-N-{(1S,2S)-2-[(4-{(1S)-1-[4-(2-hydroxyethyl)piperazin-1-yl]-2,3-dihydro-1H-inden-5-yl}phenyl)methoxy]cyclopentyl}-5-(2-methyl-1,3-thiazol-4-yl)pyridine-3-carboxamide], the figures for the IC50 on human MER (528-end) (setting [2]), against human AXL (473-end) (setting [3]) and at human TYRO3 (455-end) were less than 10 nM, less than 10 nM and 10 to 100 nM, respectively.

Turning to `Cc1csc(-c2cnc(N)c(C(=O)N[C@H]3CCC[C@@H]3OCc3ccc(-c4ccc5c(c4)CC[C@@H]5N4CCN(CCO)CC4)cc3)c2)n1` [Example 181, 2-amino-N-{(1S,2S)-2-[(4-{(1S)-1-[4-(2-hydroxyethyl)piperazin-1-yl]-2,3-dihydro-1H-inden-5-yl}phenyl)methoxy]cyclopentyl}-5-(4-methyl-1,3-thiazol-2-yl)pyridine-3-carboxamide], the IC50 on human MER (528-end) (setting [2]) was less than 10 nM; against human AXL (473-end) (setting [3]) it was less than 10 nM; on human TYRO3 (455-end) it was 10 to 100 nM.
